Data: article PMC6796659, “Topoisomerase IB poisons induce histone H2A phosphorylation as a response to DNA damage in Leishmania infantum” (International Journal for Parasitology: Drugs and Drug …, 2019)
Like-named read-outs stand apart in the source and are kept apart here.

Experiments:
[1] = test system: iRFP L. infantum amastigotes infecting mouse splenocytes; experiment: Antileishmanial activity on iRFP L. infantum amastigotes in ex vivo murine splenic explants; format: cell-based, Leishmania infantum; conditions: for SI (Selectivity Index): CC50 (splenocytes)/EC50 (amastigotes); for EC50: Leishmania infantum, Splenocyte, 72 h, read-out: EC50 (μM) L. infantum amastigotes
Protocol: Five-week BALB/c female mice infected intraperitoneally with 1.5 × 10^9 metacyclic iRFP L. infantum promastigotes were sacrificed to eviscerate their spleens, which were processed to obtain a suspension of primary splenocytes. Briefly, freshly dissected spleens were washed with cold phosphate-buffered saline (PBS), cut in small pieces and incubated for 20 min with 5 mL of 2 mg/mL collagenase D (Sigma) prepared in buffer (10 mM HEPES, pH 7.4, 150 mM NaCl, 5 mM KCl, 1 mM MgCl2 and 1.8 mM CaCl2). Then, the cell suspension was passed through a 100 μm cell strainer, harvested by centrifugation (500×g for 7 min at 4 °C), washed twice with PBS, and resuspended in RPMI medium (Gibco) supplemented with 10 mM HEPES, 1 mM sodium pyruvate, 1xRPMI 1640 vitamin mix, 10% (v/v) FBS, 50 U/mL penicillin and 50 μg/mL streptomycin. The cell suspension was cultured in 384-well optical bottom black plates (Thermo Scientific) at 37 °C under 5% CO2 atmosphere.
(§1) The antileishmanial activity of the compounds was tested both in promastigotes and in amastigotes infecting mouse splenocytes. For this purpose, 384-well optical bottom black plates (Thermo Scientific) were seeded either with free-living iRFP L. infantum promastigotes or with splenic explants infected with iRFP L. infantum amastigotes, which were incubated at 26 °C or 37 °C, respectively. The viability of both iRFP L. infantum stages was measured by recording the fluorescence emitted by viable cells at 708 nm in an Odyssey (Li-Cor) infrared imaging system after a 72-h period of incubation with different concentrations of the compounds. Dose-response curves were obtained by plotting the infrared fluorescence emission of viable parasites vs. different concentrations of testing compounds and were fitted by nonlinear analysis using the Sigma-Plot 10.0 statistical package. The reduction of infrared emission with respect to the negative control was used to determine the 50% effective concentration to kill the parasites (EC50). Both controls and treated groups were tested with DMSO (drug vehicle) concentrations below 0.1%. All compounds and controls were assayed in triplicate.

[2] = Cytotoxicity on uninfected mouse splenocytes (Alamar Blue); format: cell-based; conditions: BALB/c, freshly isolated uninfected mouse splenocytes, non-infected mouse splenocytes, read-out: CC50 (μM) Murine Splenocytes
Protocol: Finally, the cytotoxicity of the compounds was assessed on freshly-isolated mouse splenocytes, which were obtained from uninfected BALB/c mice according to the protocol previously described. Viability of uninfected splenocytes was used to determine the cytotoxic concentration 50 (CC50) by means of the Alamar Blue staining method, according to manufacturer's recommendations (Invitrogen). Selectivity index (SI) for each compound was calculated as the ratio between the CC50 value obtained for splenic cells and the EC50 value for amastigotes.

human Top IB (hTopIB) = molecular target: T1, human Top IB (hTopIB) (Homo sapiens, UniProt P11387); experiment: Relaxation of supercoiled pSK DNA by recombinant hTopIB; format: biochemical
T1 construct: made in house
T1 sequence (P11387 1-765): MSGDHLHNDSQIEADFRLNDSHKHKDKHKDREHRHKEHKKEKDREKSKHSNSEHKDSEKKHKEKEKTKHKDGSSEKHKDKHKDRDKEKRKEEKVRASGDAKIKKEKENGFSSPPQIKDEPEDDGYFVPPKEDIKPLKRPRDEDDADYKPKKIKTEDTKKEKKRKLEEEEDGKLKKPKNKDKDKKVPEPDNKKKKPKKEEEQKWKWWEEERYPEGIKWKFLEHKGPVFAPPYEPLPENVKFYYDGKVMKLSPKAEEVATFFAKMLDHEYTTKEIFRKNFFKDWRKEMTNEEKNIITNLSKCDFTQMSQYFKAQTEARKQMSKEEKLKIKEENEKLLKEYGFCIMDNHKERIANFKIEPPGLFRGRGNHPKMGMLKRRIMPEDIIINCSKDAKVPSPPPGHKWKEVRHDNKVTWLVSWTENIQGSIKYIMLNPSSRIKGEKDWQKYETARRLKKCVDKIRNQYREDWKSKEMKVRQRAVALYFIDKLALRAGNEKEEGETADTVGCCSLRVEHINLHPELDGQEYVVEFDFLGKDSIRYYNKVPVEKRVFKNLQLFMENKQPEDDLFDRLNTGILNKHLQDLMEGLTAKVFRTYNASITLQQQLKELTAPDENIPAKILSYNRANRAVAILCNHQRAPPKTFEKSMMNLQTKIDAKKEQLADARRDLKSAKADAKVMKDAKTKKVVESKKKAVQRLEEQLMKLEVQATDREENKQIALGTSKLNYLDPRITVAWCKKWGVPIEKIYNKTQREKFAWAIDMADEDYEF
Protocol: (§2) Expression and purification of LTopIB and hTopIB were carried out according to a previously standardized protocol ([Villa et al., 2003]). The effect of indenoisoquinolines (compounds 1 to 20) on recombinant LTopIB and hTopIB was determined by measuring the relaxation of negatively supercoiled pBluescript-SK DNA plasmid (pSK). Briefly, in a total volume of 20 μL, 100 U of recombinant TopIB were incubated with 0.5 μg of pSK DNA in 10 mM Tris-HCl buffer (pH 7.5), 5 mM MgCl2, 5 mM dithiothreitol (DTT), 0.1 mM EDTA, […] bovine serum albumin, and 150 mM KCl. Different concentrations of indenoisoquinolines were also added. Following a 4-min incubation period at 25 °C, reactions were stopped with 1% (w/v) SDS, and incubated for one extra hour at 37 °C in the presence of 1 mg/mL proteinase K. Subsequently, samples were extracted with 1 vol phenol-chloroform mixture and were loaded on a 1% agarose gel containing 0.1 μg/mL ethidium bromide. The gel was run for 16 h at 4 V/cm, and the images were acquired using a G-Box system (Syngene, United Kingdom).

[3] = test system: Leishmania topoisomerase IB (LTopIB); experiment: Relaxation of supercoiled pSK DNA by recombinant LTopIB; format: biochemical; set-up: key: +++: inhibition at 1 μM; ++: inhibition at 10 μM; +: inhibition at 100 μM; 0: no inhibition
Protocol: as §2

[4] = test system: iRFP L. infantum promastigotes; experiment: Antileishmanial activity on free-living iRFP L. infantum promastigotes (infrared fluorescence viability); format: cell-based; conditions: Leishmania infantum, 72 h, 26 °C
Protocol: Histone phosphorylation assays were performed in promastigotes of L. infantum BCN 150 strain, whereas the antiparasitic activity of the compounds was assessed on the transgenic strain that constitutively expresses the irfp gene encoding the infrared iRFP protein (iRFP L. infantum strain) ([Calvo-Álvarez et al., 2015]), which is derived from L. infantum BCN 150. Both strains were grown at 26 °C in M-199 medium (Gibco) supplemented with 25 mM HEPES pH 7.2, 0.1 mM adenine, 0.0005% (w/v) hemin, 2 μg/mL biopterin, 0.0001% (w/v) biotin, 10% (v/v) heat-inactivated fetal bovine serum (FBS) and an antibiotic cocktail comprising 50 U/mL penicillin and 50 μg/mL streptomycin.
as §1

[5] = splenic-infecting iRFP L. infantum amastigotes, 37 °C

O=C1c2ccccc2-c2c1c1ccc([N+](=O)[O-])cc1c(=O)n2CCCN1CCOCC1 [Compound 15]
SI (Selectivity Index) [1]: 30
EC50 [1, 5]: 0.6 ± 0.42 µM
CC50 [2]: 18 ± 5.3 µM
hTopIB inhibition (human Top IB (hTopIB); Table 3): +++ (inhibition at 1 μM)
LTopIB inhibition ([3]; Table 3): 0
EC50 [4]: > 10 µM

NCCCCCn1c2c(c3ccccc3c1=O)C(=O)c1ccccc1-2 [Compound 10]
EC50 [1, 5]: 2.29 ± 1.05 µM
CC50 [2]: 1.35 ± 0.19 µM
hTopIB inhibition (human Top IB (hTopIB); Table 1): +++ (inhibition at 1 μM)
LTopIB inhibition ([3]; Table 1): +++ (inhibition at 1 μM)
EC50 [4]: 2.4 ± 1.03 µM

CCOc1ccc2c(c1)C(=O)c1c-2n(CCCN)c(=O)c2cc([N+](=O)[O-])ccc12 [Compound 5]
SI (Selectivity Index) [1]: 4.4
EC50 [1, 5]: 0.08 µM
CC50 [2]: 0.35 ± 0.03 µM
hTopIB inhibition (human Top IB (hTopIB); Table 1): +++ (inhibition at 1 μM)
LTopIB inhibition ([3]; Table 1): ++ (inhibition at 10 μM)
EC50 [4]: 0.54 ± 0.05 µM

NCCCn1c2c(c3ccc([N+](=O)[O-])cc3c1=O)C(=O)c1cc3c(cc1-2)OCO3 [Compound 8]
SI (Selectivity Index) [1]: 2.8
EC50 [1, 5]: 0.02 ± 0.05 µM
CC50 [2]: 0.05 ± 0.01 µM
hTopIB inhibition (human Top IB (hTopIB); Table 1): +++ (inhibition at 1 μM)
LTopIB inhibition ([3]; Table 1): +++ (inhibition at 1 μM)
EC50 [4]: 0.06 ± 0.01 µM

NCCn1c2c(c3ccccc3c1=O)C(=O)c1ccccc1-2 [Compound 1]
SI (Selectivity Index) [1]: 24.4
EC50 [1, 5]: 0.04 ± 0.09 µM
CC50 [2]: 1.1 ± 0.06 µM
hTopIB inhibition (human Top IB (hTopIB); Table 1): ++ (inhibition at 10 μM)
LTopIB inhibition ([3]; Table 1): +++ (inhibition at 1 μM)
EC50 [4]: 0.94 ± 0.03 µM

COc1cc2c3c(n(CCCn4ccnc4)c(=O)c2cc1OC)-c1cc2c(cc1C3=O)OCO2 [Compound 14]
SI (Selectivity Index) [1]: 3.0
EC50 [1, 5]: 0.01 µM
CC50 [2]: 0.03 µM
hTopIB inhibition (human Top IB (hTopIB); Table 2): +++ (inhibition at 1 μM)
LTopIB inhibition ([3]; Table 2): 0
EC50 [4]: 1.85 ± 0.18 µM

NCCCCn1c2c(c3ccccc3c1=O)C(=O)c1ccccc1-2 [Compound 9]
EC50 [1]: 0.73 ± 0.01 µM
CC50 [2]: 2.11 ± 0.22 µM
hTopIB inhibition (human Top IB (hTopIB); Table 1): +++ (inhibition at 1 μM)
LTopIB inhibition ([3]; Table 1): +++ (inhibition at 1 μM)
EC50 [4]: 0.43 ± 0.08 µM

O=C1c2cccnc2-c2c1c1ccccc1c(=O)n2CCCn1ccnc1 [Compound 13]
SI (Selectivity Index) [1]: 4.1
EC50 [1, 5]: 0.59 ± 0.6 µM
CC50 [2]: 2.4 ± 0.35 µM
hTopIB inhibition (human Top IB (hTopIB); Table 2): ++ (inhibition at 10 μM)
LTopIB inhibition ([3]; Table 2): + (inhibition at 100 μM)
EC50 [4]: 2.89 ± 0.14 µM

O=C1c2ccccc2-c2c1c1ccc([N+](=O)[O-])cc1c(=O)n2CCCn1ccnc1 [Compound 11]
SI (Selectivity Index) [1]: 11
EC50 [1, 5]: 0.06 ± 0.02 µM
CC50 [2]: 0.71 ± 0.01 µM
hTopIB inhibition (human Top IB (hTopIB); Table 2): +++ (inhibition at 1 μM)
LTopIB inhibition ([3]; Table 2): +++ (inhibition at 1 μM)
EC50 [4]: 0.45 ± 0.5 µM

COc1ccc2c(c1)C(=O)c1c-2n(CCCN2CCOCC2)c(=O)c2cc([N+](=O)[O-])ccc12 [Compound 16]
EC50 [1, 5]: 1.86 ± 0.29 µM
CC50 [2]: 0.59 ± 0.08 µM
hTopIB inhibition (human Top IB (hTopIB); Table 3): +++ (inhibition at 1 μM)
LTopIB inhibition ([3]; Table 3): 0
EC50 [4]: > 10 µM

C[C@@H]1[C@H](O)[C@@H](C)/C=C/C=C/C=C/C=C/C=C/C=C/C=C/[C@H](O[C@@H]2O[C@H](C)[C@@H](O)[C@H](N)[C@@H]2O)C[C@@H]2O[C@](O)(C[C@@H](O)C[C@@H](O)[C@H](O)CC[C@@H](O)C[C@@H](O)CC(=O)O[C@H]1C)C[C@H](O)[C@H]2C(=O)O [AMB, amphotericin B, reference compound]
SI (Selectivity Index) [1]: >62
EC50 [1, 5]: 0.3 µM
CC50 [2]: > 20 µM
EC50 [4]: 0.8 ± 0.1 µM

COC(=O)c1ccc2c(c1)C(=O)c1c-2n(CCCN)c(=O)c2cc([N+](=O)[O-])ccc12 [Compound 4]
SI (Selectivity Index) [1]: 4.2
EC50 [1, 5]: 0.14 ± 0.08 µM
CC50 [2]: 0.59 ± 0.02 µM
hTopIB inhibition (human Top IB (hTopIB); Table 1): +++ (inhibition at 1 μM)
LTopIB inhibition ([3]; Table 1): ++ (inhibition at 10 μM)
EC50 [4]: 1.1 ± 0.07 µM

NCCCn1c2c(c3ccc([N+](=O)[O-])cc3c1=O)C(=O)c1cc(Br)ccc1-2 [Compound 6]
SI (Selectivity Index) [1]: 6.2
EC50 [1, 5]: 0.13 ± 0.03 µM
CC50 [2]: 0.81 ± 0.09 µM
hTopIB inhibition (human Top IB (hTopIB); Table 1): +++ (inhibition at 1 μM)
LTopIB inhibition ([3]; Table 1): +++ (inhibition at 1 μM)
EC50 [4]: 0.52 ± 0.03 µM
